The values below are quoted from earlier work in patent US11059813B2, “Polymorphic forms of Dasatinib” (BIOCON LIMITED, priority 2017, dated 2021).

The conditions of series [1]: co-former alone.
The conditions of series [2]: co-former alone; for thermal stability: melting points greater than 300° C.
Another series deals with rat. The note with it: in vivo, po.

Consider `Cc1c[nH]c(=O)[nH]c1=O` [Thymine], for which the hygroscopicity entry in series [1] is given as “non-hygroscopic”. For the same compound, in series [2], the chemical stability entry is given as “chemically stable” and the thermal stability entry is “thermally stable”. Moreover, in the series with rat, the LD50 value is 3500 mg/kg.

Regarding `Cc1nc(Nc2ncc(C(=O)Nc3c(C)cccc3Cl)s2)cc(N2CCN(CCO)CC2)n1` [Dasatinib, N-(2-chloro-6-methylphenyl)-2-[[6-[4-(2-hydroxyethyl)-1-piperazinyl]-2-methyl-4-pyrimidinyl]amino]-5-thiazole carboxamide], the solubility in water result was “poor”.

As for `Nc1ncnc2nc[nH]c12` [Adenine], the hygroscopicity result in series [1] is recorded as “non-hygroscopic”. Also, in series [2], the chemical stability entry was “chemically stable” and the thermal stability result is “thermally stable”. Further, the LD50 value with rat is 227 mg/kg.
